For one data set, the system named is Lewis rat EAE model. Briefly: Lewis rat acute EAE model, clinical score. Format: in vivo. The following applies: female Lewis rats, 1000 ug/rat s.c. on day 1 and day 15; chronic stage of disease; ANOVA vs vehicle p≦0.028; FIG. 1.
For data set [1] the following is noted: oral, 12 mg/day; Lindsay et al. 1979; cited from earlier work.
The conditions of data set [2]: Heithecker et al., 1991; cited from earlier work.
For data set [3], the system named is CD4+ lymphocytes of MS patients. The following applies: concentrations at a similar level as in pregnancy; Correale et al. 1998; cited from earlier work.
The conditions of data set [4]: administered orally; cited from earlier work.
Data set [5] concerns experimental autoimmune encephalomyelitis (EAE). The following applies: levels equal to those found in pregnancy; Kim et al. 1999, Jansson et al. 1994; cited from earlier work.

A word on the half-life: it is the time in which the quantity being followed falls by half.

Molecules are shown by their SMILES.

As for `CCCCCC(=O)Oc1ccc2c(c1)CC[C@@H]1[C@@H]2CC[C@@]2(C)[C@H]1C[C@@H](O)[C@@H]2OC(=O)CCCCC` [3,17β-di-n-hexanoyloxy-1,3,5(10)-estratriene-16α-ol], the “clinical score (EAE)” value in the data set on Lewis rat EAE model is “efficacious in lowering the clinical score”.

For `C[C@]12CC[C@@H]3c4ccc(O)cc4CC[C@H]3[C@@H]1C[C@@H](O)[C@@H]2O` [estriol], the osteoprotective effects result in data set [1] is recorded as “not able to show the osteoprotective effects”. For the same compound, the half-life in data set [2] was 1.5 to 5.3 h. Further, the “secretion of anti-inflammatory cytokine IL-10” value in data set [3] is listed as “stimulated”. The bioavailability result in data set [4] is recorded as “low”. Also, the “amelioration of disease (EAE)” value in data set [5] is “capable of ameliorating disease”.
